Earlier results in paper PMC8602434 (Drugs in R&D, 2021).

Legend:
MC1R = conditions: read-out: half maximal effective concentration (EC50); cited from earlier work
[1] = sc administration; cited from earlier work
[2] = sc, dose of 33 µmol/kg; cited from earlier work

Q: Which EC50 (MC1R) does the source give for “α-melanocyte-stimulating hormone [α-MSH]” here?
A: 0.22 nM

Q: Which tmax [1] does the source give for bremelanotide here?
A: 0.5 to 1.0 h

Q: And the t½ [1]?
A: 1.9 to 2.7 h

Q: Which Cmax [2] does the source give for `CCCC(=O)C1(c2ccccc2)CCN(C(=O)[C@@H](Cc2ccc(OC)cc2)NC(=O)[C@@H](N)Cc2cncn2C)CC1` [BMS-470539] here?
A: 11 µM
